From US11945806B2, “Stabilization of amyloidogenic immunoglobulin light chains” (The Scripps Research Institute, priority 2019, dated 2024)

Key:
[1] = target: T1, WIL-FL (Homo sapiens, UniProt P01721); assay: Fluorogenic coumarin titration; type: binding; details: 0.05 in buffer
[2] = tested on: WIL-FL and JTO-FL variants with F98D mutation; assay: Fluorogenic coumarin titration, F98D variants; type: binding, human; details: 1 at 1 μM; presence or absence of the C214 inter-chain disulfide bond
Protocol: Fluorogenic coumarin titration. LCs were concentrated to 200 μM in centrifugal concentrators with a 10 kDa membrane, unless the available material was limiting. […] Fluorescence of 1 was measured on a Gemini plate reader (Molecular Devices) using an excitation wavelength of 373 nm and emission wavelength of 445 nm. Data were normalized platewise to the plateau fluorescence value for WIL-FL to calculate the fraction of 1 bound.
To further test the hypothesis that 1 binds at the interface between the V-domains, we measured binding of 1 to WIL-FL and JTO-FL variants with mutations designed to disrupt the dimer (22). The F98D mutation, which disrupts the V-domain-V-domain interface, rendered binding of 1 (1 μM) undetectable in the presence or absence of the C214 inter-chain disulfide bond (FIG. 2d, right panel).

[3] = target: human serum albumin (HSA) (Homo sapiens, UniProt P02768); assay: Binding of 1 to albumin by fluorescence of 1
Chain of human serum albumin (HSA) (P02768 25-609): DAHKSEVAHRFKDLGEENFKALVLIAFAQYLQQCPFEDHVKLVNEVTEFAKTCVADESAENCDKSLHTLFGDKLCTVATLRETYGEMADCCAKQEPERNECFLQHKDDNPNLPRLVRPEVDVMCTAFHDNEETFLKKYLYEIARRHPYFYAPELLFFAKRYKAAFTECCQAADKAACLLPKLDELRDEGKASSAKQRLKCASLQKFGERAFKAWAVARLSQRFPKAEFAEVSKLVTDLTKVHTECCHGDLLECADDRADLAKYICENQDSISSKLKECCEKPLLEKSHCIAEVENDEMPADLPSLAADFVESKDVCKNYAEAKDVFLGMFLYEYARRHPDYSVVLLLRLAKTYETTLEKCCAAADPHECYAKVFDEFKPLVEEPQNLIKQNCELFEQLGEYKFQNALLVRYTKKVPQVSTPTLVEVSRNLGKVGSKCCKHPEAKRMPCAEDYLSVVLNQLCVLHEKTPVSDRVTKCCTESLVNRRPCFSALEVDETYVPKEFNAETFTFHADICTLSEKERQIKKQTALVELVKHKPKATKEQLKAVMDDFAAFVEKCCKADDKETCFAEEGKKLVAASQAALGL
From the text: Therefore, kinetic stabilizer binding selectivity to FL LCs in preference to other plasma proteins is important to minimize the proportion of free FL LC. Albumin binds many small molecules in blood, typically with μM KD values.

[4] = tested on: WIL-FL and JTO-FL with residue 46 mutated to leucine; assay: Fluorogenic coumarin titration, residue 46 to leucine variants; type: binding, human
From the text: The residues used by JTO to bind 1 are highly conserved (FIG. 3d). Residues Y36, P44, Y87 and F98 are present in 88, 99, 95 and 100% of all human germline LC genes, respectively, whereas T46 is only present in two functional germline genes.

[5] = target: T1, WIL-FL; assay: Equilibrium unfolding, urea titration; type: biochemical; details: 1 at 100 μM or 5 at 50 μM, WIL-FL 5 μM; 1.4 M without ligand
Protocol: Equilibrium unfolding. WIL-FL (5 μM) was titrated against urea in 50 mM sodium phosphate buffer, pH 7.0, containing 50 μM 5 or 100 μM 1. After incubation overnight at 25° C., intrinsic tryptophan fluorescence emission spectra were measured using a Jasco 8600 fluorimeter (μex=280 nm, μem=300-420 nm). Average wavelength (also known as center of spectral mass) values were calculated using the equation: […]
λi and Ii are the are the wavelength and intensity at i, respectively. Average wavelength data were normalized for comparison. […] Midpoint urea concentrations were calculated by fitting the titration data to a 2-state unfolding equation: […]
x is the urea concentration (M), G is the free energy of unfolding (kJ mol^−1), m is the denaturant dependence of the unfolding reaction (kJ mol^−1 M^−1), R is the ideal gas constant, T is the temperature in K, a and c are the fluorescence of the folded and unfolded states, and b and d are the denaturant dependence of the fluorescence of the folded and unfolded states, respectively.

[6] = target: T2, WIL-FL* (Homo sapiens, UniProt P01721, K101C, form not given); assay: PCFP assay with thermolysin; details: mean ± sd, n=3; 6.75 μM compound
[7] = target: T1, WIL-FL; assay: PK proteolysis of unlabeled WIL-FL by SDS-PAGE; details: WIL-FL 10 μM, small molecule 100 μM, t=2 h
Protocol: The experiment in FIG. 1b measured simultaneous proteolysis of labeled and unlabeled LC by adding 20 nM WIL-FL* or JTO-FL* to 5 μM WIL-FL or JTO-FL, respectively. Fluorescein fluorescence images of the SDS-PAGE gels were recorded, after which the gels were Coomassie stained and imaged.

[8] = tested on: WIL-FL C214S; assay: Thioflavin T aggregation kinetics; type: biochemical, human; details: thioflavin T fluorescence
Protocol: Aggregation. WIL C214S was dialyzed into ddH2O and filtered. Each 1 ml reaction contained 10 μM LC, ddH2O, 1% DMSO or 200 μM 1 in 1% DMSO, 150 mM NaCl, and ABC buffer (20 mM sodium acetate, 20 mM boric acid, 20 mM sodium citrate, pH 5 with HCl). Components are listed in the order they were added.
Thioflavin T (ThT)-containing aggregation reactions were set up in 96-well plates with similar conditions used for the reactions described above, except each 100 μl reaction also contained 2 μM ThT. Aggregation was induced with shaking as previously described (4). In total, 21 replicates for both vehicle and 1, over four independent experiments (plates) were performed.
WIL-FL C214S aggregates upon vigorous stirring at or below pH 5 to form heterogenous aggregate structures. […] This may be because a given LC can stochastically form different aggregate structures with different kinetics.

[9] = target: T3, isolated λ3 C-domain (Homo sapiens, UniProt P0DOY3); assay: Fluorogenic coumarin titration; type: binding; details: 1 at 1 μM
T3 construct: made in house; host or cells: E. coli

[10] = target: T2, WIL-FL*; assay: Protease-coupled fluorescence polarization (PCFP) assay with proteinase K; details: secondary screen, mean ± sd, n=3; 6.75 μM compound; FP retention after 24 h at 22° C., normalized to high and low controls
[11] = target: JTO-V (Homo sapiens, UniProt P01721); assay: NMR native-state hydrogen-deuterium exchange; type: biochemical; details: 1 at 500 μM
Protocol: (§1) Native-state hydrogen exchange experiments were measured for WIL-V at 0.2 mM and JTO-V at 0.1 mM with or without 0.5 mM 1. […] Per-residue exchange rates k, were converted to free energies using the equation where krc are the residue-specific exchange rates of unprotected amides (18):
(§2) To verify that binding of 1 reduces LC unfolding under non-denaturing conditions, we measured residue-specific hydrogen-deuterium exchange rates by NMR of WIL-V and JTO-V (100 μM) in the absence of or with 1 (500 μM). These rates (the decrease in intensity of the HSQC peak associated with each amide) are converted to free energies that report on each amide's folding equilibrium by normalizing for the published exchange rates of amides in unstructured peptides.

[12] = target: WIL-V (Homo sapiens, UniProt P01721); assay: NMR native-state hydrogen-deuterium exchange; type: biochemical; details: 1 at 500 μM
Protocol: as §1, §2

[13] = tested on: WIL-FL*; assay: FP artefact counterscreen (compounds added after 24 h of proteinase K treatment); type: biochemical, human; details: compound added after 24 h PK treatment; mean ± sd, n=3
Protocol: Secondly, to remove compounds that interfere with the FP measurement, the primary screen was repeated in triplicate but compounds were added after 24 h of proteinase K treatment (FIG. 1f). […] Bona fide hits should retain no FP beyond the low control.

[14] = tested on: 5J8 Fab (LC:HC dimer); assay: Binding of 1 by fluorescence; set-up: species or system human; details: 1 at 1 μM
[15] = tested on: 5J8 Fab; assay: PK proteolysis; type: biochemical, human

CCN(CC)c1ccc2c(C)cc(=O)oc2c1 [Compound 1, 7-diethylamino-4-methylcoumarin]
FP of 1 in the WIL-FL•1 complex [1]: 0.35
binding of 1 [2]: undetectable
Kd [3]: 37 ± 3 µM
affinity of 1 for albumin in the presence of diflunisal ([3]; 100 μM diflunisal): reduced
binding affinity of 1 [4]: slightly enhances the binding affinity
midpoint concentration of urea required to unfold the FL LC [5]: 2.0 M
Thermolysin activity (%) [6]: 36.4 ± 2.0%
protection of WIL-FL against PK proteolysis [7]: protects this FL LC against PK proteolysis
rate of aggregation versus vehicle control [8]: decreases the rate of aggregation significantly
binding of 1 [9]: No binding
PK activity (%) [10]: 47.8 ± 0.7%
average stabilization (free energy from exchange rates) [11]: 0.6 kcal/mol
average stabilization (free energy from exchange rates) [12]: 0.6 kcal/mol
Counterscreen activity (%) [13]: −8.07 ± 3.3%
binding to 1 as measured by fluorescence [14]: no apparent binding
protection from PK proteolysis [15]: does not protect
